Measured values reported in patent US8252807B2, “Methods of inhibiting the interaction between S100 and the receptor for advanced glycation end-products” (Board of Regents, The University of Texas System, priority 2007, dated 2012).

Tests used:
[1] = system: Panc-1 orthotopic tumors; assay: Tumor growth and metastasis in scid mice, Panc-1 orthotopic; type: in vivo; details: for effect on liver or lung metastasis: Panc-1
Method: FIGS. 6A-6F show the effect of cromolyn on Panc-1 tumor growth and metastasis in vivo. Panc-1 cells stably expressing the firefly luciferase gene were injected orthotopically into 4-week-old male CB 17 scid mice. […] Mice were divided into four groups of five mice each with an equivalent mean tumor size between groups. […] One group was treated with water (control), one group received gemcitabine bi-weekly (125 mg per kg body weight bi-weekly by intraperitoneal injection), one group was administered cromolyn daily (5 mg per kg body weight daily by intraperitoneal injection), and the final group was given the combination of cromolyn and gemcitabine. All groups were treated for six weeks. Bioluminescent imaging was done weekly to assess tumor growth. […] Means and 95% confidence intervals from two independent experiments are shown (n=20). Two-tailed two-sample (unpaired) Student's t-tests were used to determine P values.
The anti-tumorigenic capability of the drug cromolyn was assessed in 4-week-old male CB 17 scid mice (n=20) carrying orthopic tumors of BxPC-3, MPanc96, and Panc-1 cells stably expressing a Lenti-luc reporter. All mouse experiments were reviewed and approved by the Institutional Animal Care and Use Committee of UT MD Anderson Cancer Center. All mice were maintained in a sterile environment. Cages, bedding, food, and water were all autoclaved. All mice were maintained on a daily 12-hour light/12-hour dark cycle, according to the institutional animal welfare guidelines.
BxPC-3, MPanc96, and Panc-1 cells carrying the Lenti-luc reporter gene were grown to 80% confluence, harvested by incubation with trypsin-EDTA, washed twice in PBS, and resuspended to a final concentration of 4.0×10^6 cells/mL. Each mouse (n=20 mice per cell line) was injected (into the pancreas) with cell suspensions (50 μL). Bioluminescent imaging to determine tumor volume was performed 1 week after injection because the tumors became established within this amount of time. This initial tumor volume was used to divide the mice into four groups of five mice each, such that the mean tumor size was equal between groups (FIGS. 4A, 5A, and 6A). To allow enough time to observe differences among treatment groups, the mice were followed for the next 5 weeks. One group of mice was then treated biweekly with a sub-maximal concentration of gemcitabine (125 mg per kg body weight by i.p. injection). A second group was treated with a daily injection of cromolyn (5 mg per kg body weight by i.p. injection). A third group was treated with both bi-weekly gemcitabine and daily cromolyn. The control group was treated daily with vehicle. Treatments were continued for 5 weeks, and the effects on the tumor burden and metastasis were analyzed by weekly bioluminescence imaging (FIGS. 4B, 5B, and 6B). At the end of the experiment the mice were anesthetized with 1.5% isofluorane/air mixture and killed by cervical dislocation.
Bioluminescence imaging was conducted using a cryogenically cooled IVIS 100 imaging system coupled to a data acquisition computer running Living Image software (Xenogen Corp., Alameda, Calif.). Before imaging, mice were placed in an acrylic chamber, anesthetized with 1.5% isofluorane/air mixture, and injected i.p. with 15 mg/mL of luciferin potassium salt in PBS at a dose of 150 mg per kg body weight. A digital grey scale image of each mouse was acquired, followed by acquisition and overlay of a pseudocolor image representing the spatial distribution of detected photons emerging from active luciferase within the mouse. Tumor volume was quantified as the sum of all detected photons within the region of the tumor per second. At the end of experiment, the mice were killed, and tumors were surgically removed and weighed. After the primary tumors were removed, cancer cell dissemination and metastasis was visualized using IVIS imaging, and metastatic colonies were counted. […]

[2] = system: MPanc-96 orthotopic tumors; assay: Tumor growth and metastasis in scid mice, MPanc-96 orthotopic; type: in vivo; details: for liver metastasis, difference versus control / lung metastasis, difference versus control / tumor burden, difference versus control / lung metastasis, mean / liver metastasis, mean / tumor burden (primary tumor volume by bioluminescence), mean: MPanc-96; for lung metastasis, mean: control mean=5.9×10^7; for liver metastasis, mean: control mean=9.4×10^8; for tumor burden (primary tumor volume by bioluminescence), mean: end of six weeks, cromolyn 5 mg per kg daily i.p., gemcitabine 125 mg per kg bi-weekly i.p., control mean=1.1×10^10
Method: FIGS. 5A-5F show the effect of cromolyn on MPanc-96 tumor growth and metastasis in vivo. MPanc-96 cells stably expressing the firefly luciferase gene were injected orthotopically into 4-week-old male CB 17 scid mice. […] Mice were divided into four groups of five mice each with an equivalent mean tumor size between groups. […] One group was treated with water (control), one group received gemcitabine bi-weekly (125 mg per kg body weight bi-weekly by intraperitoneal injection), one group was administered cromolyn daily (5 mg per kg body weight daily by intraperitoneal injection), and the final group was given the combination of cromolyn and gemcitabine. All groups were treated for six weeks. Bioluminescent imaging was done weekly to assess tumor growth. […] Means and 95% confidence intervals from two independent experiments are shown (n=20). Two-tailed two-sample (unpaired) Student's t-tests were used to determine P values. The anti-tumorigenic capability of the drug cromolyn was assessed in 4-week-old male CB 17 scid mice (n=20) carrying orthopic tumors of BxPC-3, MPanc96, and Panc-1 cells stably expressing a Lenti-luc reporter. All mouse experiments were reviewed and approved by the Institutional Animal Care and Use Committee of UT MD Anderson Cancer Center. All mice were maintained in a sterile environment. Cages, bedding, food, and water were all autoclaved. All mice were maintained on a daily 12-hour light/12-hour dark cycle, according to the institutional animal welfare guidelines. BxPC-3, MPanc96, and Panc-1 cells carrying the Lenti-luc reporter gene were grown to 80% confluence, harvested by incubation with trypsin-EDTA, washed twice in PBS, and resuspended to a final concentration of 4.0×10^6 cells/mL. Each mouse (n=20 mice per cell line) was injected (into the pancreas) with cell suspensions (50 μL). […] This initial tumor volume was used to divide the mice into four groups of five mice each, such that the mean tumor size was equal between groups (FIGS. 4A, 5A, and 6A). To allow enough time to observe differences among treatment groups, the mice were followed for the next 5 weeks. One group of mice was then treated biweekly with a sub-maximal concentration of gemcitabine (125 mg per kg body weight by i.p. injection). A second group was treated with a daily injection of cromolyn (5 mg per kg body weight by i.p. injection). A third group was treated with both bi-weekly gemcitabine and daily cromolyn. The control group was treated daily with vehicle. Treatments were continued for 5 weeks, and the effects on the tumor burden and metastasis were analyzed by weekly bioluminescence imaging (FIGS. 4B, 5B, and 6B). At the end of the experiment the mice were anesthetized with 1.5% isofluorane/air mixture and killed by cervical dislocation. […] Before imaging, mice were placed in an acrylic chamber, anesthetized with 1.5% isofluorane/air mixture, and injected i.p. with 15 mg/mL of luciferin potassium salt in PBS at a dose of 150 mg per kg body weight. A digital grey scale image of each mouse was acquired, followed by acquisition and overlay of a pseudocolor image representing the spatial distribution of detected photons emerging from active luciferase within the mouse. Tumor volume was quantified as the sum of all detected photons within the region of the tumor per second. At the end of experiment, the mice were killed, and tumors were surgically removed and weighed. After the primary tumors were removed, cancer cell dissemination and metastasis was visualized using IVIS imaging, and metastatic colonies were counted. Subsequently, tissues were fixed with formaldehyde, and histology was used to verify the accuracy of the bioluminescence data.

Compound | effect on liver or lung metastasis [1] | effect on body weight ([1]; Panc-1 model, up to 6 weeks) | tumor development in Panc-1 model ([1]; cromolyn 5 mg per kg daily i.p., alone or with gemcitabine) | liver metastasis, difference versus control [2] | lung metastasis, difference versus control [2] | tumor burden, difference versus control [2] | lung metastasis, mean [2] | liver metastasis, mean [2] | tumor burden (primary tumor volume by bioluminescence), mean [2] | effect on body weight ([2]; MPanc-96 model, up to 6 weeks) | body weight, difference versus control ([1]; Panc-1 model) | body weight at the end of the experiment, mean ([1]; Panc-1 model, control mean=32.0 g)
O=C(O)c1cc(=O)c2c(OCC(O)COc3cccc4oc(C(=O)O)cc(=O)c34)cccc2o1 [cromolyn, disodium 1,3-bis[(2′-carboxylatochromon-5′-yl)oxy]-2-hydroxypropane] | neither cromolyn nor gemcitabine nor the combination reduced liver or lung metastasis | no effect on body weight | did not reduce tumor development or increase the effectiveness of gemcitabine | 7.2×10^8 photons/sec | 5.6×10^7 photons/sec | 6.2×10^9 photons/sec | 3.2×10^6 photons/sec | 2.2×10^8 photons/sec | 4.8×10^9 photons/sec | no effect on body weight | – | –
Nc1ccn([C@@H]2O[C@H](CO)[C@@H](O)C2(F)F)c(=O)n1 [gemcitabine] | neither cromolyn nor gemcitabine nor the combination reduced liver or lung metastasis | – | – | 8.1×10^8 photons/sec | 5.4×10^7 photons/sec | 6.9×10^9 photons/sec | 5.0×10^6 photons/sec | 1.2×10^8 photons/sec | 4.1×10^9 photons/sec | – | 4.8 g | 27.2 g
